{
  "source": "patent US20020064500A1",
  "about": "“Radiotracers for in vivo study of acetylcholinesterase and alzheimer's disease” (priority 1999, published 2002)",
  "key": {"acetylcholinesterase [1]": {"molecular_target": "acetylcholinesterase (Homo sapiens, UniProt P22303)", "sequence (P22303 32-614)": "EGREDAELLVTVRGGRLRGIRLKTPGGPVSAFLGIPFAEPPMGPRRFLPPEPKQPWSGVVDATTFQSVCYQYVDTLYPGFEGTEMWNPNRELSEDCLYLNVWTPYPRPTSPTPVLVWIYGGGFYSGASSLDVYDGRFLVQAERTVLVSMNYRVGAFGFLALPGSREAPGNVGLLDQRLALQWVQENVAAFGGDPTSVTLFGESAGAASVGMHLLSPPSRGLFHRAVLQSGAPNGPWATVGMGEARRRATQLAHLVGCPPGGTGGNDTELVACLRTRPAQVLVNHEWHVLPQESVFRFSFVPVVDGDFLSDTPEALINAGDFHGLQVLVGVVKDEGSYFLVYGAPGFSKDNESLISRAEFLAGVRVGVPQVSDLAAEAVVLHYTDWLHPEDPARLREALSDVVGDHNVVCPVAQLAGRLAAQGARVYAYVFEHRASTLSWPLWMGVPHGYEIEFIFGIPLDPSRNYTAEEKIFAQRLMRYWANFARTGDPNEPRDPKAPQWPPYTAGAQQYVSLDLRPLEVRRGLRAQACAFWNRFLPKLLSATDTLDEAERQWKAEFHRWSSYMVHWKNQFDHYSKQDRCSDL", "assay": "PET imaging of acetylcholinesterase in a human brain, with and without ARICEPT", "details": "for Normalized uptake (nCi/ccBRAIN/nCi/ccPLASMA): healthy human subject, i.v., PET, average of scans after 42 minutes; for Normalized uptake post 5 mg ARICEPT (nCi/ccBRAIN/nCi/ccPLASMA): same subject, 3 hours after oral 5 mg ARICEPT tablet", "quoted_text": "The same imaging study was then performed.\nA thermoplastic mask was used for PET positioning. Use of a thermoplastic mask is routine for PET studies to help immobilize the head and to provide spacial facial landmarks. To produce a brain image, PETwas begun, and 25 scans were obtained in 90 minutes. After each scan, heated venous blood samples were withdrawn from the back of the patient's hand, to measure the amount of the radiolabeled compound in the blood, in units of nCi/cc blood. The brain images were used to calculate nCi/ccBRAIN for each scan. The average of the ratio (nCi/ccBRAIN/nCi/ccPLASMA)control (i.e., tissue radioactivity/plasma radioactivity or nanocurries per cubic centimeter of brain tissue divided by nanocurries per cubic centimeter of blood), over the scans collected after 42 minutes, for each area of the brain, are shown in Table 1.\nBrain images and brain time radioactivity curves were obtained in the same manner as above and the average nCi/ccBRAIN/nCi/ccPLASMA ratio was calculated for each area the brain."}, "acetylcholinesterase [2]": {"molecular_target": "T1, acetylcholinesterase (Mus musculus, UniProt P21836)", "T1 construct": "from tissue; host or cells: brain regions of CD-1 mice after intravenous injection", "T1 sequence (P21836 32-614)": "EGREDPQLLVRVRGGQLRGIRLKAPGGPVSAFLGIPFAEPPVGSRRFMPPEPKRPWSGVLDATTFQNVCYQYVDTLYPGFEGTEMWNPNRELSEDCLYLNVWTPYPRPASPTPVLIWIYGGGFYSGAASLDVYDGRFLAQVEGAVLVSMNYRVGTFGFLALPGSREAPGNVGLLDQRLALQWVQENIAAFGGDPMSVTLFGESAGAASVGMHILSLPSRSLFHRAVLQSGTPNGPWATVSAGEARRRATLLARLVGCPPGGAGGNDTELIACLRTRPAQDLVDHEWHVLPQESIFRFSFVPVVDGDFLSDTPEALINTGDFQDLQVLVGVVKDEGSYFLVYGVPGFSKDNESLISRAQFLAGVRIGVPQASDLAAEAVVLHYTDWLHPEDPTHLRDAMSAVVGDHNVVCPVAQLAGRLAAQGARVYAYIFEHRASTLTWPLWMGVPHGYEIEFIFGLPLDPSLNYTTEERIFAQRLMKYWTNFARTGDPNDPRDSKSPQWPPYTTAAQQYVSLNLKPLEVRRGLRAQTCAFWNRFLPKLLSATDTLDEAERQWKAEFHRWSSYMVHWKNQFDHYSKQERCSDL", "assay": "Kinetic experiment: regional brain biodistribution in mice", "format": "in vivo, male Charles River mice (CD-1)", "details": "for percentage of the administered dose/gram of brain tissue (%ID/g): 5 minutes post i.v. injection, mean of 3", "description": "21 male Charles River mice (CD-1) were divided into 7 groups of 3 mice each. Each mouse was injected via a tail vein with approximately 350 μCi of compound II (10 μg). Each mouse was sacrificed by cervical dislocation at the following times post injection: group 1 at 5 minutes; group 2 at 15 minutes; group 3 at 30 minutes; group 4 at 45 minutes; group 5 at 60; group 6 at 90 minutes; and group 7 at 120 minutes. At the time of sacrifice of a particular group, the brains of each mouse were quickly removed and dissected on ice. The following regions were collected weighed and assayed for radioactivity: cerebellum, hippocampus, striatum, parietal cortex, thalamus. The following values, averaged over each group of three mice, for the percentage of the administered dose of compound II/gram of brain tissue (%ID/g), were found in the following brain regions at five minutes post injection: striatum (6.19% injected dose/gram tissue); thalamus (4.76%); cortex (4.01%); cerebellum (3.76%); and hippocampus (3.41%)."}, "acetylcholinesterase [3]": {"molecular_target": "T1, acetylcholinesterase", "assay": "Dose response experiment: blocking of compound II brain binding by compound III in mice", "format": "in vivo", "details": "5 minutes before compound II i.v.", "description": "Male Charles River mice (CD-1) were divided into 5 groups of 3 mice each. Non-radiolabeled compound III was administered to each mouse in increasing doses as follows: group1, saline controls; group 2, 0.01 mg/kg; group 3, 0.1 mg/kg; group 4, 0.3 mg/kg; and group 5,1 mg/kg. Five minutes after the injection with compound III or the saline control, each mouse was administered compound II (421 μCi, 8 μg) by intravenous injection as above. Each mouse was sacrificed by cervical dislocation and brain tissue dissected and the radioactivity of each brain region assayed as described above. The values, averaged over each group of three mice, for the percentage of the administered dose of compound II/gram of brain tissue at each dosage of compound III for each brain region were calculated (FIG. 4 below)."}},
  "data": [
    {"smiles": "[11CH3]N1C(=O)Cc2cc3c(CCC4CCN(Cc5ccccc5)CC4)noc3cc21", "note": "[compound II, 5,7-dihydro-7-[^11C]-methyl-3-[2-[1-(phenylmethyl)4-piperidinyl]ethyl]-6H-pyrrolo[3,2-f]-1,2-benzisoxazole-6-one]", "values": [
      {"measurement": "Normalized uptake (nCi/ccBRAIN/nCi/ccPLASMA)", "setting": "acetylcholinesterase [1]; Caudate", "value": 54, "unit": "nCi/ccBRAIN/nCi/ccPLASMA"},
      {"measurement": "Normalized uptake post 5 mg ARICEPT (nCi/ccBRAIN/nCi/ccPLASMA)", "setting": "acetylcholinesterase [1]; Caudate", "value": 19, "unit": "nCi/ccBRAIN/nCi/ccPLASMA"},
      {"measurement": "Normalized uptake (nCi/ccBRAIN/nCi/ccPLASMA)", "setting": "acetylcholinesterase [1]; Cerebellum", "value": 47, "unit": "nCi/ccBRAIN/nCi/ccPLASMA"},
      {"measurement": "Normalized uptake post 5 mg ARICEPT (nCi/ccBRAIN/nCi/ccPLASMA)", "setting": "acetylcholinesterase [1]; Cerebellum", "value": 13, "unit": "nCi/ccBRAIN/nCi/ccPLASMA"},
      {"measurement": "Normalized uptake (nCi/ccBRAIN/nCi/ccPLASMA)", "setting": "acetylcholinesterase [1]; Frontal cortex", "value": 26, "unit": "nCi/ccBRAIN/nCi/ccPLASMA"},
      {"measurement": "Normalized uptake post 5 mg ARICEPT (nCi/ccBRAIN/nCi/ccPLASMA)", "setting": "acetylcholinesterase [1]; Frontal cortex", "value": 7, "unit": "nCi/ccBRAIN/nCi/ccPLASMA"},
      {"measurement": "Normalized uptake (nCi/ccBRAIN/nCi/ccPLASMA)", "setting": "acetylcholinesterase [1]; Hippocampus", "value": 30, "unit": "nCi/ccBRAIN/nCi/ccPLASMA"},
      {"measurement": "Normalized uptake (nCi/ccBRAIN/nCi/ccPLASMA)", "setting": "acetylcholinesterase [1]; Medulla Oblongata", "value": 40, "unit": "nCi/ccBRAIN/nCi/ccPLASMA"},
      {"measurement": "Normalized uptake (nCi/ccBRAIN/nCi/ccPLASMA)", "setting": "acetylcholinesterase [1]; Occipital cortex", "value": 23, "unit": "nCi/ccBRAIN/nCi/ccPLASMA"},
      {"measurement": "Normalized uptake (nCi/ccBRAIN/nCi/ccPLASMA)", "setting": "acetylcholinesterase [1]; Parietal cortex", "value": 27, "unit": "nCi/ccBRAIN/nCi/ccPLASMA"},
      {"measurement": "Normalized uptake post 5 mg ARICEPT (nCi/ccBRAIN/nCi/ccPLASMA)", "setting": "acetylcholinesterase [1]; Parietal cortex", "value": 7, "unit": "nCi/ccBRAIN/nCi/ccPLASMA"},
      {"measurement": "Normalized uptake (nCi/ccBRAIN/nCi/ccPLASMA)", "setting": "acetylcholinesterase [1]; Pons", "value": 36, "unit": "nCi/ccBRAIN/nCi/ccPLASMA"},
      {"measurement": "Normalized uptake (nCi/ccBRAIN/nCi/ccPLASMA)", "setting": "acetylcholinesterase [1]; Putamen", "value": 61, "unit": "nCi/ccBRAIN/nCi/ccPLASMA"},
      {"measurement": "Normalized uptake post 5 mg ARICEPT (nCi/ccBRAIN/nCi/ccPLASMA)", "setting": "acetylcholinesterase [1]; Putamen", "value": 26, "unit": "nCi/ccBRAIN/nCi/ccPLASMA"},
      {"measurement": "Normalized uptake (nCi/ccBRAIN/nCi/ccPLASMA)", "setting": "acetylcholinesterase [1]; Temporal cortex", "value": 26, "unit": "nCi/ccBRAIN/nCi/ccPLASMA"},
      {"measurement": "Normalized uptake (nCi/ccBRAIN/nCi/ccPLASMA)", "setting": "acetylcholinesterase [1]; Thalamus", "value": 33, "unit": "nCi/ccBRAIN/nCi/ccPLASMA"},
      {"measurement": "highest specific binding defined as striatum-cerebellum", "setting": "acetylcholinesterase [2]; 30 minutes post i.v. injection", "value": 4.33, "unit": "%"},
      {"measurement": "percentage of the administered dose/gram of brain tissue (%ID/g)", "setting": "acetylcholinesterase [2]; cerebellum", "value": 3.76, "unit": "%"},
      {"measurement": "percentage of the administered dose/gram of brain tissue (%ID/g)", "setting": "acetylcholinesterase [2]; cortex", "value": 4.01, "unit": "%"},
      {"measurement": "percentage of the administered dose/gram of brain tissue (%ID/g)", "setting": "acetylcholinesterase [2]; hippocampus", "value": 3.41, "unit": "%"},
      {"measurement": "percentage of the administered dose/gram of brain tissue (%ID/g)", "setting": "acetylcholinesterase [2]; striatum", "value": "6.19 % injected dose/gram tissue"},
      {"measurement": "percentage of the administered dose/gram of brain tissue (%ID/g)", "setting": "acetylcholinesterase [2]; thalamus", "value": 4.76, "unit": "%"}
    ]},
    {"smiles": "O=C1Cc2cc3c(CCC4CCN(Cc5ccccc5)CC4)noc3cc2N1", "note": "[compound III, 5,7-dihydro-3-[2-[1-(phenylmethyl)-4-piperidinyl]ethyl]-6H-pyrrolo[3,2-f]-1,2-benzisoxazole-6-one]", "values": [
      {"measurement": "reduction of compound II binding in striatum relative to the saline control", "setting": "acetylcholinesterase [3]; compound III 0.1 mg/kg", "value": 6, "unit": "%"},
      {"measurement": "reduction of compound II binding in striatum relative to the saline control", "setting": "acetylcholinesterase [3]; compound III 0.3 mg/kg", "value": 20, "unit": "%"},
      {"measurement": "reduction of compound II binding in striatum relative to the saline control", "setting": "acetylcholinesterase [3]; compound III 1 mg/kg", "value": 52, "unit": "%"}
    ]}
  ]
}
